In patent EP4781984A1 (Beyang Therapeutics Co., Ltd., priority 2023, dated 2025):
≈ marks a conversion by molar mass, not a printed value.

What was measured:
[1] = Thermodynamic solubility test; assay type: physicochemical; settings: buffer solution, aqueous buffer, thermodynamic from solid; thermodynamic solubility, room temperature, 8 hours shaking; buffers pH 2.0, 6.5, 7.4 used, pH of the tabulated value not given
Method in brief: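 Samples sonicated 10 min, shaken 8 h at room temperature, re-sonicated and centrifuged at 13000 rpm for 15 min. Supernatant recentrifuged and analysed by LC-MS, with concentrations quantified against a 3–5 point calibration curve.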

[2] = system: melanin; assay: Compound binding to melanin; assay type: in vitro ADME; settings: cuttlefish (Sepia officinalis), melanin suspension (1 mg/mL), percentage of free drug (not bound to melanin), 2 µM compound, melanin 1 mg/mL in PBS pH 7.4, 37°C
Method in brief: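 Compound at 2 µM final incubated with 1 mg/mL Sepia melanin in PBS pH 7.4, 37°C, 2 hours with shaking; blank in PBS with 0.1% BSA. Supernatant concentration by LC-MS/MS. Fb = 100 − (Ctest/Ccontrol) × 100%.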

[3] = Ophthalmic formulations based on in situ salt formation technology: composition and state (Example 8); assay type: physicochemical; settings: for State Description: pH ~7; for State Description: pH / State Description: state: Table 17: 5 mg/mL, HP-β-CD 15, Poloxamer 188 1, Gelrite 0.15, Tris-HCl (pH 6.8) 25mM
From the text: In the following ophthalmic formulation preparation examples, "solution" refers to a clear, transparent liquid without visible insoluble matter. "Near-clear solution" refers to a liquid that appears close to a solution upon visual observation but may contain a small amount of insoluble particles or have a slightly opaque color. "Suspension" refers to a liquid that is visibly turbid or opaque. "Gel" refers to a completely or partially gel-like solid.
Example 8: Ophthalmic Formulation Based on In Situ Salt Formation Technology
Therefore, by preparing ophthalmic formulation compositions based on in situ salt formation technology, the solubility of the compounds can be further improved.
According to the formulation composition shown in the table below, weigh the compound powder, add 50% of the total volume (v/v) of a 30% (w/v) aqueous solution of hydroxypropyl-β-cyclodextrin (containing surfactant), and disperse by sonication; next, add an appropriate volume of pH regulator and sonicate until clear; then, add an equal volume of buffer containing solubilizer, viscosity modifier, etc., for dilution, and immediately vortex to mix; finally, add an appropriate volume of alkali regulator to adjust the solution pH to approximately 7, to prepare an eye drop formulation.
Using the in situ salt formation method, the compound is first dispersed in a solution containing Hydroxypropyl-β-cyclodextrin, then different acids are added to adjust the pH to 3-5, allowing the compound to fully or nearly fully dissolve, followed by adding the remaining components and adjusting the pH to approximately 7. […] Based on the visual dissolution effect after acid addition, methanesulfonic acid, acetic acid, and lactic acid were preliminarily selected as pH regulators. The preliminarily selected acids were used in subsequent tests with higher compound concentrations. Table 18 Formulation Composition and State

[4] = Effect of gellan gum on formulation viscosity and viscosity change after adding simulated tear fluid (Example 10); assay type: physicochemical; settings: compound 5 mg/mL, Gellan Gum 0.15% w/v; for Viscosity after Adding STF: simulated tear fluid added, volume ratio 3.6:1
Procedure: Example 10: Effect of Gellan Gum on Formulation Viscosity and Viscosity Change after Adding Simulated Tear Fluid
This example investigates the effect of gellan gum on formulation viscosity and simulates the scenario of eye drop instillation by adding simulated tear fluid to the formulation at a volume ratio of 3.6:1. Table 23 Effect of Gellan Gum on Formulation Viscosity
The ophthalmic drop formulation in this example was prepared using the preparation method from Example 8 (i.e., one type of Formulation II of the present invention). Except for compound , the other components in the formulation are: 30% Hydroxypropyl-β-cyclodextrin solution (containing 2% polyoxyethylene castor oil EL): 50 mM Tris(hydroxymethyl)aminomethane-Hydrochloric Acid Buffer (containing 2% Poloxamer 188, 0.3% Gellan Gum Gelrite, w/v) = 50:50 v/v, adjusted to pH using Methanesulfonic Acid and Tris(hydroxymethyl)aminomethane.

[5] = 0.05M Fumaric Acid 10, 0.5M Tris 0.5
[6] = 1M Acetic Acid 1, 0.5M Tris 0.5
[7] = 1M Lactic Acid 1, 0.5M Tris 0.5
[8] = 1M Maleic Acid 1, 0.5M Tris 1.5
[9] = 1M Methanesulfonic Acid 1, 0.5M Tris 0.5
[10] = 1M Tartaric Acid 1, 0.5M Tris 1

O=C(NC1CC1)c1cccc(F)c1Sc1ccc2c(/C=C/c3cnn(CCCN4CCCC4)c3)n[nH]c2c1 [Compound I-44, N-cyclopropyl-3-fluoro-2-({3-[(E)-2-{1-[3-(pyrrolidin-1-yl)propyl]-1H-pyrazol-4-yl}ethenyl]-1H-indazol-6-yl}sulfanyl)benzamide]
solubility at 8 h [1]: 564 µg/mL (≈ 1060 µM)
fraction unbound at 2 h, 2 µM [2]: 0.01 to 0.05
State Description ([3]; Table 21, Compound 10 mg/ml, 1M Methanesulfonic Acid 1%, Polyoxyethylene castor oil EL 1%, no 0.5M Tris): near-clear solution
State Description ([3]; Table 21, Compound 20 mg/ml, 1M Methanesulfonic Acid 4%, Polyoxyethylene castor oil EL 1%, 0.5M Tris 1%): near-clear solution
Formulation Viscosity ([4]; Test temperature 25 °C): 23.27 mPa.s
Viscosity after Adding STF ([4]; Test temperature 25 °C): 27.26 mPa.s
Formulation Viscosity ([4]; Test temperature 37 °C): 9.53 mPa.s
Viscosity after Adding STF ([4]; Test temperature 37 °C): 24.06 mPa.s

CCNC(=O)c1cc(F)ccc1Sc1ccc2c(/C=C/c3ccc(CN4CCCC4)cn3)n[nH]c2c1 [Compound I-97, N-ethyl-5-fluoro-2-({3-[(E)-2-{5-[(pyrrolidin-1-yl)methyl]pyridin-2-yl}ethenyl]-1H-indazol-6-yl}sulfanyl)benzamide]
solubility at 8 h [1]: 319 µg/mL (≈ 635 µM)
fraction unbound at 2 h, 2 µM [2]: 0.01 to 0.05
State Description ([3]; Compound 10 mg/ml, 1M Acetic Acid 2%, no Polyoxyethylene castor oil EL, 0.5M Tris 1%): pH ~7, near-clear solution, with opalescence
State Description ([3]; Compound 10 mg/ml, 1M Lactic Acid 2%, no Polyoxyethylene castor oil EL, 0.5M Tris 1%): pH ~7, near-clear solution, with opalescence
State Description ([3]; Compound 10mg/ml, 1M Methanesulfonic Acid 2%, no Polyoxyethylene castor oil EL, 0.5M Tris 1%): pH ~7, near-clear solution, with opalescence
State Description ([3]; Compound 15 mg/ml, 1M Methanesulfonic Acid 3%, no Polyoxyethylene castor oil EL, 0.5M Tris 1%): pH ~7, near-clear solution, with opalescence
State Description ([3]; Compound 20 mg/ml, 1M Methanesulfonic Acid 4%, Polyoxyethylene castor oil EL 1%, 0.5M Tris 1%): solution
State Description ([3]; Compound 20 mg/ml, 1M Methanesulfonic Acid 4%, no Polyoxyethylene castor oil EL, 0.5M Tris 0.5%): pH ~7, near-clear solution, with opalescence
State Description: pH [3, 5]: ~7
State Description: state [3, 5]: suspension
State Description: pH [3, 6]: ~7
State Description: state [3, 6]: near-clear solution
State Description: pH [3, 7]: ~7
State Description: state [3, 7]: near-clear solution
State Description: pH [3, 8]: ~7
State Description: state [3, 8]: near-clear solution
State Description: pH [3, 9]: ~7
State Description: state [3, 9]: near-clear solution
State Description: pH [3, 10]: ~7
State Description: state [3, 10]: near-clear solution
Formulation Viscosity ([4]; Test temperature 25 °C): 19.01 mPa.s
Viscosity after Adding STF ([4]; Test temperature 25 °C): 24.19 mPa.s
Formulation Viscosity ([4]; Test temperature 37 °C): 7.97 mPa.s
Viscosity after Adding STF ([4]; Test temperature 37 °C): 21.95 mPa.s
